Experimental data reported in patent US20240150277A1, “Covalent PPARG inverse-agonists” (Bayer Aktiengesellschaft, priority 2022, published 2024).
Read-outs that look alike come from different tables or passages of the source.

Tests used:
[1] = target: T1, PPARG receptors (Homo sapiens, UniProt P37231); test: RT-112-FABP4-NLuc Reporter Gene Assay (inverse agonism); assay type: cell-based; conditions: incubated over night; for IC50: PPARG_RT-112_FABP4_NLuc_inverse agonist IC50 - [mol/l], bladder cancer cell line RT-112/84, NanoLuc in FABP4 3′ UTR, 50 μM to 0.03 nM; for Emax: RT112/84, read-out: PPARG_RT-112_FABP4_NLuc_inverse agonist Efficacy - [%], bladder cancer cell line RT-112/84, NanoLuc in FABP4 3′ UTR
T1 construct: leading to PPARG dependent expression of the NanoLuc@ Luciferase; endogenous in cells
T1 sequence (P37231 1-505): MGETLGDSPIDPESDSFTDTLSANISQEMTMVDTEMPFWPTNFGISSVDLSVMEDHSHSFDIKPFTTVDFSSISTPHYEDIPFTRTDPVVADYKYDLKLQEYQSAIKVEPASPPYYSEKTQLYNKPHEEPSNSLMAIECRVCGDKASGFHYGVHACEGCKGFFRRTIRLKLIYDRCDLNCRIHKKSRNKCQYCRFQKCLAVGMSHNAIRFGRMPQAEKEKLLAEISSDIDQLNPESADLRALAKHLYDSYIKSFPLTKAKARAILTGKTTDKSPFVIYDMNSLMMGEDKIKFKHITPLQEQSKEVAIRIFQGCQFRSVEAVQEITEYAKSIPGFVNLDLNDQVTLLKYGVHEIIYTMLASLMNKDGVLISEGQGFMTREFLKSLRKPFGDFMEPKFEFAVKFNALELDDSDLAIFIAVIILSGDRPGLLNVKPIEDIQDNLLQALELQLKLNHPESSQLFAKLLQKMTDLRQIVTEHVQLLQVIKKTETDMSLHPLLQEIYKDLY
Experimental: Inverse agonists reduce the basal expression of the Luciferase resulting in a decrease of the Luciferase signal after addition of substrate and cell lysis. To exclude toxic effects of the compounds a parallel measurement of cell viability was performed based on the CellTiter Glo Assay (Promega).
On the next day 10 μl of test compounds dissolved in DMEM/F12 2% FBS and 0,01% BSA are placed in the wells of the microtiter plates. Final concentrations ranged from 50 μM to 0.03 nM. […] On the next day the NanoLuc Luciferase activity was measured by addition of 40 μl of NanoLuc substrate and lysis buffer (Promega, Madison, Wisconsin) diluted in 2 mM Ca-tyrode buffer (20 mM HEPES, 130 mM NaCl, 5 mM KCl, 5 mM NaHCO3, 2 mM MgCl2, pH 7,4). The resulting light signal was measured for 60 seconds in a luminometer. Every sample was tested in quadruples and mean values were used to calculate the IC50 values and efficacies of the compounds.

[2] = test system: UMUC9 cells; test: Proliferation UMUC9 H2B-GFP assay (Incucyte); assay type: cell-based; conditions: 7 days of treatment; for Emax: UM-UC-9, 168 h; for IC50: Day 1 subtracted, percentage of DMSO control
Experimental: Proliferation UMUC9 H2B-GFP assay
Instrument: Incucyte® (Sartorius).
Description: Incucyte® Proliferation Assay measures cell proliferation based on nuclei count using live-cell time-lapse imaging. […] Measurements were performed on the day of treatment (Day 1 reading) and after 7 days of treatment (Day 8 reading). Green fluorescence in cell nuclei is measured using the instrument (Image Channels: Phase, Green; Acquisition time: 300 ms; Magnification: 4×).
Analysis: Selected metrics for analysis: Phase Object Confluence (Percent), Nuclei Count (1/Well) and Total Nuclei Area (μm^2/Well). Day 1 measurements were subtracted from each Day 8 measurement and expressed as percentage of the vehicle (DMSO) control. Percentage proliferation values were then plotted against compound concentration using GraphPad PRISM software. The Sigmoidal 4PL X is log (concentration) model of […] was used. Relative IC50 values and % efficacy (span) is reported below.

SMILES | IC50 [1] [nM] | Emax [1] [%] | Emax ([2]; % efficacy (span)) [%] | IC50 ([2]; UM-UC-9, relative IC50) [nM] | UM-UC-9 GFP proliferation Efficacy - [%] ([2]; % efficacy (span)) | IC50 ([2]; relative IC50, read-out: UM-UC-9 GFP proliferation IC50 -) [nM]
Cc1ccccc1CNC(=O)c1cc(Cl)c(Cl)c(C(=O)Nc2ccccc2)c1 [Example 17, 4,5-dichloro-N^1-[(2-methylphenyl)methyl]-N^3-phenylbenzene-1,3-dicarboxamide] | 1.3 | 71 | 28.3 | 1.52 | – | –
Cc1cc(OC(F)F)ccc1NC(=O)c1cc(C(=O)NC(CO)c2ccc(F)cc2)c(F)cc1Cl (stereo not drawn) [Example 2, 4-chloro-N^3-[4-(difluoromethoxy)-2-methylphenyl]-6-fluoro-N^1-[1-(4-fluorophenyl)-2-hydroxyethyl]benzene-1,3-dicarboxamide] | 33 | 110 | 72.7 | 204 | – | –
O=C(NCc1ccc(F)c(F)c1)c1cc(C(=O)Nc2cnc(Oc3ccccc3)cn2)c(Cl)cc1F [Example 36, 4-chloro-N^1-(3,4-difluorobenzyl)-6-fluoro-N^3-(5-phenoxypyrazin-2-yl)isophthalamide] | 1.26 | 97.5 | 66 | 5.98 | – | –

Further compounds by falling IC50 [1], results first:

IC50 [1] [nM] | Emax [1] [%] | SMILES | Emax ([2]; % efficacy (span)) [%] | IC50 ([2]; UM-UC-9, relative IC50) [nM] | UM-UC-9 GFP proliferation Efficacy - [%] ([2]; % efficacy (span)) | IC50 ([2]; relative IC50, read-out: UM-UC-9 GFP proliferation IC50 -) [nM]
1.48 | 142 | O=C(NCc1ccc(F)cc1)c1cc(C(=O)Nc2ccc(Oc3ccccc3)cn2)c(Cl)cc1F [Example 21, 4-chloro-6-fluoro-N^1-[(4-fluorophenyl)methyl]-N^3-(5-phenoxypyridin-2-yl)benzene-1,3-dicarboxamide] | 56.1 | 10.6 | – | –
1.27 | 116 | Cc1cc(N2CCCC(O)C2)ccc1NC(=O)c1cc(C(=O)NCc2ccc(F)c(F)c2)c(F)cc1Cl (single isomer, unassigned) [Example 5, 4-chloro-N′-[(3,4-difluorophenyl)methyl]-6-fluoro-N^3-{4-[3-hydroxypiperidin-1-yl]-2-methylphenyl}benzene-1,3-dicarboxamide] | – | – | 78.67 | 5.38
0.42 | 82.5 | O=C(NCc1ccc(F)c(F)c1)c1cc(Cl)c(Cl)c(C(=O)Nc2ccc(C3CC3)cn2)c1 [Example 14, 4,5-dichloro-N^3-(5-cyclopropylpyridin-2-yl)-N^1-[(3,4-difluorophenyl)methyl]benzene-1,3-dicarboxamide] | 85 | 1570 | – | –
